Data reported in US20170306042A1, “IMMUNOGENIC MODULATION BY ENDOCRINE DEPRIVATION THERAPY IMPROVES SENSITIVITY OF TUMOR CELLS TO IMMUNE MEDIATED LYSIS” (The United States of America, as represented by the …, priority 2014, published 2017).

Tests used:
Format in all cases: cell-based, human
LNCaP cells = test: Apoptosis PCR array (96 genes) in LNCaP cells
Procedure: The properties of ADT that induce immunogenic modulation and sensitize prostate tumor cells to immune-mediated attack are novel and have not been previously described. It was hypothesized that modulation of apoptotic genes might be part of the mechanism of action of ADT-induced CTL sensitization. […] In particular, gene expression was assessed using an apoptosis PCR array (SA Biosciences, Valencia, Calif.) as per the manufacturer's instructions. RT-PCR was performed on the 7300 Real-Time PCR System (Applied Biosystems, Carlsbad, Calif.). Where indicated, values were calculated as expression relative to GAPDH, as previously described (Ardiani et al., Cancer Res., 74(7): 1945-1957 (2014))

MCF-7 cells = test: CTL assay after tamoxifen, MCF-7 targets; conditions: MCF-7 (ER+); 1 μM, 72 hours; CEA-specific or MUC-1 specific CTLs; E:T 30:1
Procedure: (§1) To determine sensitivity to immune-mediated killing, breast cancer cells treated with vehicle or 1 μM tamoxifen for 72 hours and then used as targets in a CTL assay using CEA-specific or MUC-1 specific CTLs as effector cells at an E:T ratio of 30:1.

[1] = tested on: ZR75-1, MCF, BT549 and HCC1806 cells; test: Viability of breast cancer cells treated with tamoxifen; conditions: 1 μM
Procedure: ZR75-1 (ER+PR+Her2+), MCF (ER+PR+Her2−), BT549 (ER−PR−Her2−), and HCC1806 (ER−PR−Her2−) cells were treated with vehicle or 1 μM tamoxifen to replicate intratumoral concentrations. FIGS. 12A-12D illustrate the fold increase in cell number following treatment. Viability never diminished more than 10% at any given time point.

BT549 cells = test: CTL assay after tamoxifen, BT549 targets; conditions: BT549 (ER−); 1 μM, 72 hours; E:T 30:1
Procedure: as §1

HCC1806 cells = test: CTL assay after tamoxifen, HCC1806 targets; conditions: HCC1806 (ER−); 1 μM, 72 hours; E:T 30:1
Procedure: as §1

ZR75-1 cells = test: CTL assay after tamoxifen, ZR75-1 targets; conditions: ZR75-1 (ER+); 1 μM, 72 hours; CEA-specific or MUC-1 specific CTLs; E:T 30:1
Procedure: as §1

[2] = apoptosis PCR array, negative = down-regulated

C[C@]12CC[C@H](O)CC1=CC[C@@H]1[C@@H]2CC[C@]2(C)C(c3cccnc3)=CC[C@@H]12 [abiraterone]
number of 96 apoptosis genes down-regulated greater than 2-fold (LNCaP cells; RT-PCR array): 14
number of 96 apoptosis genes up-regulated greater than 2-fold (LNCaP cells; RT-PCR array): 11
CASP1 (Caspase 1) gene expression change (LNCaP cells; [2]): −4.05 fold
CASP5 gene expression change (LNCaP cells; [2]): −4.22 fold
CASP8 gene expression change (LNCaP cells; [2]): −2.25 fold
CD27 gene expression change (LNCaP cells; [2]): −3.50 fold
DAPK1 gene expression change (LNCaP cells; [2]): −13.73 fold
HRK gene expression change (LNCaP cells; [2]): −8.57 fold
NAIP gene expression change (LNCaP cells; [2]): −4.72 fold
TNFRSF25 (DR3) gene expression change (LNCaP cells; [2]): −7.41 fold
TNFSF8 gene expression change (LNCaP cells; [2]): −7.51 fold
NAIP down-regulated (LNCaP cells; rounded from Table 1): 5 fold

CC/C(=C(\c1ccccc1)c1ccc(OCCN(C)C)cc1)c1ccccc1 [tamoxifen]
CTL-mediated lysis (MCF-7 cells): improved the CTL-mediated lysis
diminution of viability at any given time point [1]: ≤ 10%
CEA-specific killing (BT549 cells): improved CEA-specific killing
CEA-specific killing (HCC1806 cells): improved CEA-specific killing
CTL-mediated lysis (ZR75-1 cells): improved the CTL-mediated lysis
